Drawing on PMC4873738, “A Small Molecule Inhibitor of PDK1/PLCγ1 Interaction Blocks Breast and Melanoma Cancer Cell Invasion” (Scientific Reports, 2016), this text covers Kd for 1 compound.

As usually defined, the Kd is a measure of binding affinity in units of concentration.

For this test, the target named is T1, 3-phosphoinositide-dependent protein kinase 1 (PDK1) (Homo sapiens, UniProt O15530).
T1 construct: gene PDPK1; PH domain, amino-acids 411-552
T1 sequence (O15530 411-552): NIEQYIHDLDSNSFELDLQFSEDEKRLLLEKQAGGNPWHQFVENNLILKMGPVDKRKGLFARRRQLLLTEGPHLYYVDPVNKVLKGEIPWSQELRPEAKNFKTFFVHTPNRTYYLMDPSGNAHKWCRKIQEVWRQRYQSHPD
Kind of test: isothermal titration calorimetry with purified recombinant PH domain, […] °C, four experiments, n = […]. Type of test: binding.

In the case of `O=P(O)(O)O[C@@H]1[C@@H](OP(=O)(O)O)[C@H](OP(=O)(O)O)[C@H](OCc2ccccc2)[C@H](OP(=O)(O)O)[C@H]1OP(=O)(O)O` [2-O-Bn-InsP5, 2-O-benzyl-myo-inositol 1,3,4,5,6-pentakisphosphate], the Kd was determined as 109 ± 44 nM.
